Assay results taken from patent publication US20120322153A1, “REPROGRAMMING A CELL BY ACTIVATION OF THE ENDOGENOUS TRANSCRIPTION FACTOR NETWORK” (NUPOTENTIAL, INC., priority 2009, published 2012).
Read-outs that look alike come from different tables or passages of the source.

What was measured:
HDAC = conditions: order of magnitude of affinity for HDAC; cited from earlier work
[1] = test system: Human adipose tissue derived adult stem cells; experiment: ES cell-like colony formation of hADS cells pre-treated with HDAC inhibitor, then OSKM lentivirus; format: cell-based
Procedure: Human adipose tissue derived adult stem cells were maintained at 37° C. in 95% humidity and 5% CO2 in Dulbecco's modified eagle medium (DMEM, Cell Application) containing 10% fetal bovine serum, 0.5% penicillin and streptomycin. Cells were grown, trypsinized and counted, then diluted in the above standard growth medium to achieve appropriate plating density (1×10^5 cells/well in 6 well plate, Corning) prior to HDAC inhibitor treatment.
Pre-treatment. […] The cell culture medium was changed every other day with new treatment.
Lentivirus infection. Lentivirus that over-expresses mouse Oct-4, Sox2, c-Myc, and Klf4 was purchased from Millipore, (Billerica, Mass.). One day before lentivirus infection, human adipose tissue-derived cells with or without HDAC inhibitor pretreatment were trypsinized and plated at a density of 1×10^5 cells/well in a 6 well plate (Corning) using standard growth medium described above. The following day, the medium was replaced with 1 ml of fresh medium containing 0.6 ug/ml of polybrene (Sigma-Aldrich, St. Louis, Mo.), and thawed lentivirus (MOI 75) was added directly to the wells following the manufacturer's instruction. Cells were maintained at 37° C. in 95% humidity and 5% CO2 incubator overnight. On the next day, lentiviral infection was repeated after cells were washed 3 times with 1×PBS. Lentivirus infected cells were maintained in the standard growth medium for 4˜5 days and trypsinized, and plated on irradiated MEF feeder layers (ATCC, Manassas, Va.) with mTeSR medium (Stem Cell Technology).

[2] = test system: Human adipose tissue derived adult stem cells; experiment: Immunohistochemistry for Sox-2 and Oct4 in ES cell-like colonies from hADS cells; format: cell-based; conditions: pre-treatment with TSA
Procedure: Cells were fixed with fixative (Ethanol:acetic acid:H2O=7:2:1) for 10 minutes. After rinse 3 times with 10% FBS in 1×PBS for 5 min each and cells were incubated I hrs with primary antibodies for Oct4 (1:200 dilution, Abeam), or Sox2 (1:200 dilution, Abeam) in 10% FBS containing 0.2% saponin (Sigma) and following alexaFluor-conjugated secondary antibody (1:200 dilution, Invitrogen).

BJFs (ATCC) = experiment: HDAC and DNMT1 gene expression in BJFs treated with VPA; format: cell-based
Procedure: FIG. 4C is a bar graph reporting HDAC and DNMT1 gene expression in BJFs (ATCC) treated with […] Valproic acid (VPA) for 7 days.
Expression levels for shRNA-targeted genes and pluripotency transcription factor were quantified by real-time RT-PCR. Briefly, total RNA was prepared from cultures using Trizol Reagent (Life Technology) and the RNeasy Mini RNA isolation kit (Qiagen) with DNase I digestion according to manufacturer's protocol. Total RNA (1 μg) from each sample was subjected to oligo(dT)-primed reverse transcription (Invitrogen) to cDNA. Real-time PCR reactions were performed with PCR master mix on a 7300 real-time PCR system (Applied Biosystems). For each sample, 1 μl of diluted cDNA (1:10) was added as template in the PCR reactions. Expression levels were compared to those in untreated and non-targeting shRNA control cells relative to cyclophillin.

mouse embryos = conditions: mice, when properly dosed; cited from earlier work
[3] = test system: Mouse embryonic fibroblasts; conditions: Recombinant protein, cited from earlier work
[4] = used as antiepileptic drug during pregnancy; a few percent of born children; cited from earlier work
Human fibroblasts = conditions: Retroviral infection, cited from earlier work
[5] = 5 days pre-treatment, 9 days after OSKM viral infection
[6] = 5 days pre-treatment, 11 days after OSKM viral infection

Compound	Affinity Range (HDAC)	also measured
O=C(CCCCCCCC(=O)NO)NO [ABHA (azeleic bishydroxamic acid), azeleic bishydroxamic acid]	uM	–
CCCC(=O)OCOC(=O)C(C)(C)C [AN-9, Pivaloyloxymethyl butyrate, Pivaloyloxymethyl butyrate]	uM	–
CCCC(=O)[O-].[Na+] [Butyrate/Sodium Butyrate, Sodium Butyrate]	mM	–
CC(=O)Nc1ccc(C(=O)Nc2ccccc2N)cc1 [CI-994(N-acetyl dinaline), N-acetyl dinaline]	nM	–
C=CCSSCC=C [Diallyl disulfide (DADS), Diallyl disulfide]	uM	–
CCN(CC)Cc1ccc2cc(COC(=O)Nc3ccc(C(=O)NO)cc3)ccc2c1 [ITF2357]	nM	–
Nc1ccccc1NC(=O)c1ccc(CNc2nccc(-c3cccnc3)n2)cc1 [MGCD0103]	nM	–
Nc1ccccc1NC(=O)c1ccc(CNC(=O)OCc2cccnc2)cc1 [MS-275 (same as MS-27-275)]	nM	–
O=C(/C=C/c1ccc(CN(CCO)CCc2c[nH]c3ccccc23)cc1)NO [NVP-LAQ824]	nM	–
O=C(/C=C/c1cccc(S(=O)(=O)Nc2ccccc2)c1)NO [PDX-101]	uM	–
S=C=NCCCCc1ccccc1 [Phenylbutyl isothiocyanate]	uM	–
O=C(CCCCCCC(=O)Nc1cccnc1)NO [Pyroxamide]	uM	–
O=C(CCCCCCC(=O)NO)NO [SBHA (suberic bishydroxamate), suberic bishydroxamate]	uM	–
CC(=O)N[C@@H](CSC(=S)NCCCC[S+](C)[O-])C(=O)O (some centres unmarked) [SFN-N-acetylcysteine (SFN-NAC), SFN-N-acetylcysteine]	uM	–
C[S+]([O-])CCCCNC(=S)SC[C@H](N)C(=O)O (some centres unmarked) [SFN-cysteine (SFN-Cys), SFN-cysteine]	uM	–
CN(C)c1ccc(C(=O)NCc2ccc(/C=C/C(=O)NO)cc2)cc1 [SK-7041]	nM	–
O=C(/C=C/c1ccc(CNC(=O)c2ccc(N3CCCC3)cc2)cc1)NO [SK-7068]	nM	–
O=C(CCCCCN1C(=O)c2cccc3cccc(c23)C1=O)NO [Scriptaid]	–	ES cell-like colony formation [1, 5]: ES cell-like colony formation was observed; ES cell-like colony formation [1, 6]: multiple colonies displaying morphologies consistent with embryonic stem cells or reprogrammed cells were observed
C[S+]([O-])CCCCN=C=S (centres unmarked) [Sulforaphane (SFN), Sulforaphane]	uM	–
CC(/C=C/C(=O)NO)=C\[C@@H](C)C(=O)c1ccc(N(C)C)cc1 [TSA, Trichostatin A]	nM	Sox-2 and Oct4 expression in ES cell-like colonies [2]: showed Sox-2 and Oct4 expression; ES cell-like colony formation [1, 5]: multiple colonies displaying morphologies consistent with embryonic stem cells or reprogrammed cells were observed; ES cell-like colony formation [1, 6]: ES cell-like colony formation was observed; Increase in colony formation vs no pretreatment ([1]; 5 days pre-treatment, then OSKM lentivirus): two-fold; Number of ES cell-like colonies ([1]; First Experiment): 24; Number of ES cell-like colonies ([1]; Second Experiment): 21; Somatic cell reprogramming efficiency (number of formed colonies) ([1]; pre-treatment prior to four-factor transfection, TSA 1 μM): increased
CCCC(CCC)C(=O)O [VPA, Valproic acid]	mM	DNMT1 gene expression (BJFs (ATCC); BJFs, 500 nM VPA, 7 days, vs control (MC) cells, P<0.005): significantly up regulated; HDAC1 gene expression (BJFs (ATCC); BJFs, 500 nM VPA, 7 days, vs control (MC) cells, P<0.01): significantly up regulated; SIRT4 gene expression (BJFs (ATCC); BJFs, 500 nM VPA, 7 days, vs control (MC) cells, P<0.05): significantly up regulated; Compensatory expression of HDACs (HDAC9, HDAC5, HDAC11, SIRT4, SIRT5) (BJFs (ATCC); treatment of cells with VPA (FIG. 4C)): induced; Teratogenicity (mouse embryos): teratogenic in the majority of mouse embryos; Efficiency ([3]; 3 iPS factors (OSK) + VPA): 0.002%; Efficiency ([3]; 4 iPS factors (OSKM) + VPA): 0.006%; Birth defects (neural tube closure defects and other malformations) [4]: may induce birth defects; Efficiency (Human fibroblasts; 2 iPS factors (OS) + VPA): 0.001%; Efficiency (Human fibroblasts; 3 iPS factors (OSK) + VPA): 1%; ES cell-like colony formation [1, 5]: Colonies displaying characteristics of embryonic stem cells or reprogrammed cells were observed; ES cell-like colony formation [1, 6]: Colonies displaying characteristics of embryonic stem cells or reprogrammed cells were observed
O=C(/C=C/c1cccc(C(=O)NO)c1)NO [m-Carboxycinnamic acid bishydroxamic acid]	uM	–
Oxamflatin	uM	–
Suberoylanilide hydroxamic acid	uM	–
